Data as given in ChEMBL document CHEMBL1201862, “PubChem BioAssay data set” (2004).
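A five-concentration, 48-hour dose response in 96-well plates underlies each endpoint, interpolated linearly between surrounding concentrations. Here, GI50 denotes the concentration required for 50% inhibition of growth.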 Calls of active or inactive are those of the source. Cut-off read from the data, not from the text of the source: active = GI50 up to about 1.1 µM and inactive = higher.

Columns and labels:
Assay in all cases: DTP human tumour cell line panel, 48 h
[1] = system: 786-0
[2] = system: A549
[3] = system: CAKI-1
[4] = system: HT-29
[5] = system: K562
[6] = system: LOX IMVI
[7] = system: MDA-N
[8] = system: Malme-3M
[9] = system: NCI-H23
[10] = system: NCI-H460
[11] = system: NCI-H522
[12] = system: OVCAR-5
[13] = system: RPMI-8226
[14] = system: RXF 393
[15] = system: SK-MEL-28
[16] = system: SK-MEL-2
[17] = system: SN12C
[18] = system: SNB-19
[19] = system: SR
[20] = system: SW-620

Compound	GI50 [1]	GI50 [2]	GI50 [3]	GI50 [4]	GI50 [5]	GI50 [6]	GI50 [7]	GI50 [8]	GI50 [9]	GI50 [10]	GI50 [11]	GI50 [12]	GI50 [13]	GI50 [14]	GI50 [15]	GI50 [16]	GI50 [17]	GI50 [18]	GI50 [19]	GI50 [20]
CN(C1=NS(=O)(=O)N=C(N(C)c2ccccc2)O1)c1ccccc1	24.9 µM (inactive)	21.2 µM (inactive)	22.1 µM (inactive)	22.9 µM (inactive)	17.7 µM (inactive)	13.3 µM (inactive)	15 µM (inactive)	24.2 µM (inactive)	11.5 µM (inactive)	21.8 µM (inactive)	18.5 µM (inactive)	23.1 µM (inactive)	16.9 µM (inactive)	3.55 µM (inactive)	22.8 µM (inactive)	16.4 µM (inactive)	18.7 µM (inactive)	18.7 µM (inactive)	7.06 µM (inactive)	14 µM (inactive)
c1ccc(C2C3=C(CCCC3)Nc3nc4cc5ccccc5cc4n32)cc1 (stereo not given)	> 100 µM (inactive)	> 100 µM (inactive)	> 100 µM (inactive)	> 100 µM (inactive)	> 100 µM (inactive)	> 100 µM (inactive)	> 100 µM (inactive)	> 100 µM (inactive)	> 100 µM (inactive)	> 100 µM (inactive)	> 100 µM (inactive)	> 100 µM (inactive)	> 100 µM (inactive)	> 100 µM (inactive)	> 100 µM (inactive)	> 100 µM (inactive)	> 100 µM (inactive)	> 100 µM (inactive)	> 100 µM (inactive)	> 100 µM (inactive)
Cc1ccc(S(=O)(=O)N(CC(O)COc2ccccc2)c2ccccc2Cl)cc1 (stereo not given)	18.4 µM (inactive)	11.8 µM (inactive)	15.5 µM (inactive)	17.5 µM (inactive)	11.6 µM (inactive)	17.3 µM (inactive)	16.3 µM (inactive)	14.5 µM (inactive)	14.7 µM (inactive)	17 µM (inactive)	12.4 µM (inactive)	23.3 µM (inactive)	11.5 µM (inactive)	16 µM (inactive)	15.6 µM (inactive)	13.7 µM (inactive)	15 µM (inactive)	18.2 µM (inactive)	13.9 µM (inactive)	17.8 µM (inactive)
NC(Cc1cccnn1)C(=O)O (stereo not given)	> 100 µM (inactive)	> 100 µM (inactive)	> 100 µM (inactive)	> 100 µM (inactive)	> 100 µM (inactive)	> 100 µM (inactive)	> 100 µM (inactive)	> 100 µM (inactive)	> 100 µM (inactive)	> 100 µM (inactive)	> 100 µM (inactive)	> 100 µM (inactive)	> 100 µM (inactive)	> 100 µM (inactive)	> 100 µM (inactive)	> 100 µM (inactive)	> 100 µM (inactive)	> 100 µM (inactive)	> 100 µM (inactive)	> 100 µM (inactive)
O=C1Nc2ccccc2/C1=C1/Nc2ccccc2/C1=N\OCCNCC(O)C(O)C(O)C(O)CO (stereo not given)	18.1 µM (inactive)	44.4 µM (inactive)	38.5 µM (inactive)	16.9 µM (inactive)	16.3 µM (inactive)	8.53 µM (inactive)	9.89 µM (inactive)	11.2 µM (inactive)	10.4 µM (inactive)	18.1 µM (inactive)	13.4 µM (inactive)	> 50 µM (inactive)	19.1 µM (inactive)	12.5 µM (inactive)	9.73 µM (inactive)	7.91 µM (inactive)	15.2 µM (inactive)	13.6 µM (inactive)	9.55 µM (inactive)	15.9 µM (inactive)
CC[C@@]1(O)C(=O)OCc2c1cc1n(c2=O)Cc2c-1nc1ccccc1c2/C=N\NC(=O)C(N)CS (stereo not given in full)	0.51 µM (active)	2 µM (inactive)	0.495 µM (active)	9.29 µM (inactive)	1.5 µM (inactive)	0.454 µM (active)	9.4 µM (inactive)	9.59 µM (inactive)	0.733 µM (active)	0.363 µM (active)	0.883 µM (active)	17.3 µM (inactive)	1.32 µM (inactive)	1.8 µM (inactive)	5.5 µM (inactive)	46.3 µM (inactive)	0.116 µM (active)	0.571 µM (active)	0.0373 µM (active)	1.37 µM (inactive)
C=C1C(=O)OC2C1CCC(C)C1C=CC(=O)C12C (stereo not given)	1.85 µM (inactive)	7.76 µM (inactive)	2.97 µM (inactive)	2.02 µM (inactive)	2.48 µM (inactive)	1.93 µM (inactive)	1.77 µM (inactive)	2.5 µM (inactive)	3.25 µM (inactive)	4.84 µM (inactive)	0.891 µM (active)	4.53 µM (inactive)	1.81 µM (inactive)	1.84 µM (inactive)	2.05 µM (inactive)	4.39 µM (inactive)	3.33 µM (inactive)	14.7 µM (inactive)	1.51 µM (inactive)	1.8 µM (inactive)
O=c1[nH]n(Cc2ccccn2)c2ccc([N+](=O)[O-])cc12	> 100 µM (inactive)	> 100 µM (inactive)	> 100 µM (inactive)	> 100 µM (inactive)	> 100 µM (inactive)	> 100 µM (inactive)	> 100 µM (inactive)	> 100 µM (inactive)	> 100 µM (inactive)	> 100 µM (inactive)	> 100 µM (inactive)	> 100 µM (inactive)	> 100 µM (inactive)	> 100 µM (inactive)	> 100 µM (inactive)	> 100 µM (inactive)	> 100 µM (inactive)	> 100 µM (inactive)	> 100 µM (inactive)	> 100 µM (inactive)
CC(C)OC(=O)c1cc(NC(=S)OC(C)C)ccc1Cl	23.4 µM (inactive)	25.2 µM (inactive)	15.1 µM (inactive)	16.5 µM (inactive)	30.4 µM (inactive)	17.2 µM (inactive)	23.1 µM (inactive)	33.6 µM (inactive)	20.5 µM (inactive)	> 39 µM (inactive)	13.2 µM (inactive)	25.1 µM (inactive)	24.6 µM (inactive)	22.3 µM (inactive)	28.3 µM (inactive)	22.4 µM (inactive)	13.4 µM (inactive)	27 µM (inactive)	28.6 µM (inactive)	28.4 µM (inactive)
CSc1cc(N)ccc1/N=N/c1ccc(S(N)(=O)=O)cc1	26 µM (inactive)	22.1 µM (inactive)	36.1 µM (inactive)	30.3 µM (inactive)	38.1 µM (inactive)	29.6 µM (inactive)	61.7 µM (inactive)	24.7 µM (inactive)	33.4 µM (inactive)	24.2 µM (inactive)	17.7 µM (inactive)	45 µM (inactive)	16.4 µM (inactive)	30.5 µM (inactive)	25.5 µM (inactive)	24.2 µM (inactive)	27.5 µM (inactive)	55.3 µM (inactive)	34.6 µM (inactive)	41.7 µM (inactive)
